Laboratory results as given in PubChem BioAssay (NCI).
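Briefly, cells in 96-well plates were exposed to five compound concentrations for 48 h, and endpoints were estimated by linear interpolation. Abbreviation: GI50, concentration required for 50% inhibition of growth. TGI: total growth inhibition.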

Assays:
Experiment in all cases: growth of human tumour cells (NCI), 48 h
[1] = tested on: A549 NSCLC
[2] = tested on: CCRF-CEM leukemia
[3] = tested on: SNB-19 CNS
[4] = tested on: SK-MEL-5 melanoma
[5] = tested on: OVCAR-3 ovarian
[6] = tested on: UACC-257 melanoma
[7] = tested on: CAKI-1 renal
[8] = tested on: NCI-H522 lung
[9] = tested on: 786-0 renal
[10] = tested on: MOLT-4 leukemia
[11] = tested on: OVCAR-4 ovarian
[12] = tested on: SN12C renal
[13] = tested on: COLO 205 colon
[14] = tested on: SR leukemia
[15] = tested on: MDA-MB-435
[16] = tested on: PC-3 prostate
[17] = tested on: A498 renal
[18] = tested on: HCT-15 colon
[19] = tested on: BT-549 breast
[20] = tested on: HT29 colon
[21] = tested on: RPMI-8226 leukemia
[22] = tested on: HCC-2998 colon
[23] = tested on: MDA-MB-468 breast
[24] = tested on: T-47D breast
[25] = tested on: LOX IMVI melanoma
[26] = tested on: NCI-H226 lung
[27] = tested on: HCT-116 colon
[28] = tested on: MDA-MB-231 breast
[29] = tested on: SF-295 CNS
[30] = tested on: U251 CNS
[31] = tested on: IGROV1 ovarian
[32] = tested on: HOP-92 NSCLC
[33] = tested on: RXF 393 renal
[34] = tested on: M14 melanoma
[35] = tested on: HOP-62 NSCLC
[36] = tested on: SK-MEL-2 melanoma
[37] = tested on: SK-OV-3 ovarian
[38] = tested on: SF-268 CNS
[39] = tested on: HL-60(TB) leukemia
[40] = tested on: SF-539 CNS
[41] = tested on: OVCAR-5 ovarian
[42] = tested on: NCI-H23 lung
[43] = tested on: OVCAR-8 ovarian
[44] = tested on: SK-MEL-28 melanoma
[45] = tested on: TK-10 renal
[46] = tested on: UACC-62 melanoma
[47] = tested on: DU-145 prostate
[48] = tested on: SW-620 colon
[49] = tested on: MCF7 breast
[50] = tested on: KM12 colon
[51] = tested on: NCI-H460 lung
[52] = tested on: SNB-75 CNS
[53] = tested on: NCI/ADR-RES ovarian
[54] = tested on: HS 578T breast
[55] = tested on: MALME-3M melanoma
[56] = tested on: UO-31 renal
[57] = tested on: ACHN renal
[58] = tested on: EKVX NSCLC
[59] = tested on: K-562 leukemia

SMILES: COc1ccc2oc3c4[nH]c5ccccc5c4c4c(c3c2c1)C(=O)N(C(=O)OC(C)(C)C)C4=O
- GI50 [1]: 2.84 µM
- TGI [1]: 49.3 µM
- GI50 [2]: 2.65 µM
- TGI [2]: > 100 µM
- GI50 [3]: 4.21 µM
- TGI [3]: > 100 µM
- GI50 [4]: 4.09 µM
- TGI [4]: 16.1 µM
- GI50 [5]: 3.72 µM
- TGI [5]: 16.7 µM
- GI50 [6]: 2.49 µM
- TGI [6]: 9.3 µM
- GI50 [7]: 2.59 µM
- TGI [7]: 37.4 µM
- GI50 [8]: 2.2 µM
- TGI [8]: 11.6 µM
- GI50 [9]: 3.65 µM
- TGI [9]: > 100 µM
- GI50 [10]: 1.47 µM
- TGI [10]: 5.01 µM
- GI50 [11]: 4.18 µM
- TGI [11]: 89.2 µM
- GI50 [12]: 2.25 µM
- TGI [12]: 37.2 µM
- GI50 [13]: 3.03 µM
- TGI [13]: 10.3 µM
- GI50 [14]: 1.59 µM
- TGI [14]: > 100 µM
- GI50 [15]: 1.43 µM
- TGI [15]: 18.3 µM
- GI50 [16]: 1.88 µM
- TGI [16]: > 100 µM
- GI50 [17]: 1.47 µM
- TGI [17]: 9.77 µM
- GI50 [18]: 2.12 µM
- TGI [18]: 10.4 µM
- GI50 [19]: 2.09 µM
- TGI [19]: 10.1 µM
- GI50 [20]: 2.98 µM
- TGI [20]: > 100 µM
- GI50 [21]: 1.83 µM
- TGI [21]: 8.29 µM
- GI50 [22]: 3.98 µM
- TGI [22]: > 100 µM
- GI50 [23]: 2.84 µM
- TGI [23]: 22 µM
- GI50 [24]: 1.28 µM
- TGI [24]: 7.23 µM
- GI50 [25]: 3.05 µM
- TGI [25]: 14.1 µM
- GI50 [26]: 2.52 µM
- TGI [26]: 24.1 µM
- GI50 [27]: 3.06 µM
- TGI [27]: 24.2 µM
- GI50 [28]: 6.45 µM
- TGI [28]: > 100 µM
- GI50 [29]: 2.62 µM
- TGI [29]: 10.9 µM
- GI50 [30]: 2.86 µM
- TGI [30]: 28.2 µM
- GI50 [31]: 2.4 µM
- TGI [31]: 27.6 µM
- GI50 [32]: 2.64 µM
- TGI [32]: 41.3 µM
- GI50 [33]: 3.12 µM
- TGI [33]: 19.2 µM
- GI50 [34]: 1.22 µM
- TGI [34]: 5 µM
- GI50 [35]: 2.45 µM
- TGI [35]: 12.2 µM
- GI50 [36]: 2.84 µM
- TGI [36]: 10.2 µM
- GI50 [37]: 2.59 µM
- TGI [37]: 24.3 µM
- GI50 [38]: 3.11 µM
- TGI [38]: 41.6 µM
- GI50 [39]: 2.28 µM
- TGI [39]: 9.07 µM
- GI50 [40]: 3.12 µM
- TGI [40]: 11.5 µM
- GI50 [41]: 2.06 µM
- TGI [41]: 31 µM
- GI50 [42]: 2.1 µM
- TGI [42]: 10.6 µM
- GI50 [43]: 2.4 µM
- TGI [43]: 11.1 µM
- GI50 [44]: 1.67 µM
- TGI [44]: 5.18 µM
- GI50 [45]: 2.56 µM
- TGI [45]: > 100 µM
- GI50 [46]: 2.4 µM
- TGI [46]: 11.9 µM
- GI50 [47]: 3.26 µM
- TGI [47]: > 100 µM
- GI50 [48]: 2.33 µM
- TGI [48]: > 100 µM
- GI50 [49]: 1.43 µM
- TGI [49]: 12.8 µM
- GI50 [50]: 0.578 µM
- TGI [50]: 9.28 µM
- GI50 [51]: 2.32 µM
- TGI [51]: > 100 µM
- GI50 [52]: 3.07 µM
- TGI [52]: 33.8 µM
- GI50 [53]: 2.6 µM
- TGI [53]: 15.4 µM
- GI50 [54]: 2.5 µM
- TGI [54]: 12.4 µM
- GI50 [55]: 1.91 µM
- TGI [55]: 11.3 µM
- GI50 [56]: 0.9 µM
- TGI [56]: 25.8 µM
- GI50 [57]: 1.49 µM
- TGI [57]: 9.22 µM
- GI50 [58]: 3.33 µM
- TGI [58]: 32.2 µM
- GI50 [59]: 2.79 µM
- TGI [59]: > 100 µM
